Experimental data taken from PubChem BioAssay AID330 (DTP/NCI, 2004).
“And” between values parts separate entries of the source, which are not always exact repeats. Equal values may be shown once. Inconclusive results and toxic doses are left out. Rule for the calls: active = survival T/C of 150% or more; inactive = T/C below 125% in these data.

Tested on: P388 leukemia ip, CD2F1 mice, survival T/C
Test: NCI In Vivo Anticancer Drug Screen. Data for tumor model P388 Leukemia (intraperitoneal) in CD2F1 (CDF1) mice
Conditions: endpoint: median survival time, higher = longer survival
Procedure, shortened: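 Mice carrying the transplanted tumor received test compound or vehicle. Survival was recorded in each group, and the value is the treated-group measurement divided by that of the vehicle-treated control group.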

[1] = dose: 50.0 mg/kg/injection, schedule: Q01DX009 (ip), vehicle: saline
[2] = dose: 100.0 mg/kg/injection, schedule: Q01DX009 (ip), vehicle: saline
[3] = dose: 200.0 mg/kg/injection, schedule: Q01DX009 (ip), vehicle: saline
[4] = dose: 12.5 mg/kg/injection, schedule: Q04DX003 (ip), vehicle: saline
[5] = dose: 25.0 mg/kg/injection, schedule: Q04DX003 (ip), vehicle: saline
[6] = dose: 30.0 mg/kg/injection, schedule: Q01DX005 (ip), vehicle: Klucel (hydroxypropylcellulose) (HPC)
[7] = dose: 50.0 mg/kg/injection, schedule: Q01DX005 (ip), vehicle: Klucel (hydroxypropylcellulose) (HPC)
[8] = dose: 100.0 mg/kg/injection, schedule: Q01DX005 (ip), vehicle: Klucel (hydroxypropylcellulose) (HPC)
[9] = dose: 200.0 mg/kg/injection, schedule: Q01DX005 (ip), vehicle: Klucel (hydroxypropylcellulose) (HPC)
[10] = dose: 1.56 mg/kg/injection, schedule: Q01DX009 (ip), vehicle: saline
[11] = dose: 12.5 mg/kg/injection, schedule: Q01DX009 (ip), vehicle: saline
[12] = dose: 25.0 mg/kg/injection, schedule: Q01DX009 (ip), vehicle: saline
[13] = dose: 60.0 mg/kg/injection, schedule: Q01DX005 (ip), vehicle: Klucel (hydroxypropylcellulose) (HPC)
[14] = dose: 120.0 mg/kg/injection, schedule: Q01DX005 (ip), vehicle: Klucel (hydroxypropylcellulose) (HPC)
[15] = dose: 240.0 mg/kg/injection, schedule: Q01DX005 (ip), vehicle: Klucel (hydroxypropylcellulose) (HPC)

Measured: T/C

COc1nc(NCC(C)O)nc(NCC(C)O)n1 (stereo not given)
inactive: [1] 100 % of control | [2] 89 % of control | [3] 99 % of control

CSc1nc2cc(Cl)ccc2c2c1C=NCCN2
inactive: [4] 97 % of control | [5] 96 % of control | dose: 50.0 mg/kg/injection, schedule: Q04DX003 (ip), vehicle: saline 103 % of control | dose: 50.0 mg/kg/injection, schedule: Q04DX003 (ip), vehicle: suspension in saline 103 % of control

C1=C\CCCCCCCC/1
inactive: dose: 1.56 mg/kg/injection, schedule: Q01DX009 (ip), vehicle: saline with Tween-80 100 % of control | dose: 3.13 mg/kg/injection, schedule: Q01DX009 (ip), vehicle: saline with Tween-80 91 % of control | dose: 6.25 mg/kg/injection, schedule: Q01DX009 (ip), vehicle: saline with Tween-80 100 % of control | dose: 6.25 mg/kg/injection, schedule: Q04DX003 (ip), vehicle: saline 109 % of control | [4] 100 % of control | [5] 104 % of control

C1=C(C2CCCC3[C@@H]4C[C@@H](CN23)C2CCCCN2C4)CCC2[C@H]3C[C@H](CN12)C1CCCCN1C3 (stereo not given in full)
inactive: dose: 3.75 mg/kg/injection, schedule: Q01DX005 (ip), vehicle: Klucel (hydroxypropylcellulose) (HPC) 106 % of control | dose: 7.5 mg/kg/injection, schedule: Q01DX005 (ip), vehicle: Klucel (hydroxypropylcellulose) (HPC) 104 % of control | dose: 15.0 mg/kg/injection, schedule: Q01DX005 (ip), vehicle: Klucel (hydroxypropylcellulose) (HPC) 110 % of control and 96 % of control | [6] 100 % of control

C#CCCCC#C
inactive: [7] 98 % of control | [8] 98 % of control | [9] 104 % of control

CCCCNC(=S)NC(c1ccc(OC)cc1)C(CC)c1ccc(OC)cc1 (stereo not given)
inactive: dose: 100.0 mg/kg/injection, schedule: Q04DX002 (ip), vehicle: saline with Tween-80 90 % of control | dose: 200.0 mg/kg/injection, schedule: Q04DX002 (ip), vehicle: saline with Tween-80 88 % of control | dose: 400.0 mg/kg/injection, schedule: Q04DX002 (ip), vehicle: saline with Tween-80 90 % of control

COc1ccc(C(=O)CC2CCCC(CC(=O)c3ccc(OC)cc3)N2C)cc1 (stereo not given)
inactive: dose: 50.0 mg/kg/injection, schedule: Q01DX009 (ip), vehicle: saline with Tween-80 100 % of control | dose: 100.0 mg/kg/injection, schedule: Q01DX009 (ip), vehicle: saline with Tween-80 101 % of control

CCCCCCCCCCCCCCCC[N+]1(CC)CCOCC1
inactive: [10] 105 % of control and 100 % of control | dose: 3.12 mg/kg/injection, schedule: Q01DX009 (ip), vehicle: saline 99 % of control | [11] 115 % of control and 105 % of control

Cc1cc(C)nc(NCCCCNc2nc(C)cc(C)n2)n1
inactive: [7] 92 % of control | [8] 105 % of control | [9] 100 % of control

COc1ccccc1-n1c(=O)c(N=Nc2ccccc2Cl)c(O)n(-c2ccccc2Cl)c1=S
inactive: dose: 100.0 mg/kg/injection, schedule: Q01DX001 (ip), vehicle: Klucel (hydroxypropylcellulose) (HPC) 101 % of control | dose: 200.0 mg/kg/injection, schedule: Q01DX001 (ip), vehicle: Klucel (hydroxypropylcellulose) (HPC) 100 % of control | dose: 400.0 mg/kg/injection, schedule: Q01DX001 (ip), vehicle: Klucel (hydroxypropylcellulose) (HPC) 101 % of control

C/C(=N\OC(=O)c1c(-c2c(Cl)cccc2Cl)noc1C)c1ccccc1O
inactive: [1] 91 % of control | [2] 94 % of control | [3] 93 % of control

O=c1n(-c2ccccc2)c(=O)n2n1C1C=CC2C2C3OC3C21 (stereo not given)
inactive: dose: 12.5 mg/kg/injection, schedule: Q04DX003 (ip), vehicle: Klucel (hydroxypropylcellulose) (HPC) 100 % of control | dose: 25.0 mg/kg/injection, schedule: Q04DX003 (ip), vehicle: Klucel (hydroxypropylcellulose) (HPC) 101 % of control | dose: 50.0 mg/kg/injection, schedule: Q04DX003 (ip), vehicle: Klucel (hydroxypropylcellulose) (HPC) 108 % of control

O=C1C=CC(=O)C(N(CCO)CCO)=C1
inactive: [11] 99 % of control | dose: 12.5 mg/kg/injection, schedule: Q01DX009 (ip), vehicle: suspension in saline 100 % of control | [12] 94 % of control | dose: 25.0 mg/kg/injection, schedule: Q01DX009 (ip), vehicle: suspension in saline 103 % of control | [1] 95 % of control | dose: 50.0 mg/kg/injection, schedule: Q01DX009 (ip), vehicle: suspension in saline 113 % of control | [2] 95 % of control | dose: 100.0 mg/kg/injection, schedule: Q01DX009 (ip), vehicle: suspension in saline 109 % of control and 111 % of control

O=C(/C=C/C1CCCC(O)C1)C1CCCCC1 (stereo not given)
inactive: dose: 50.0 mg/kg/injection, schedule: Q01DX005 (ip), vehicle: saline with Tween-80 91 % of control | dose: 100.0 mg/kg/injection, schedule: Q01DX005 (ip), vehicle: saline with Tween-80 89 % of control | dose: 200.0 mg/kg/injection, schedule: Q01DX005 (ip), vehicle: saline with Tween-80 91 % of control

O=C(O)c1ccc(NC(C[N+](=O)[O-])C(F)(F)C(F)(F)C(F)(F)F)cc1 (stereo not given)
inactive: dose: 100.0 mg/kg/injection, schedule: Q01DX001 (ip), vehicle: saline sonified 100 % of control | dose: 200.0 mg/kg/injection, schedule: Q01DX001 (ip), vehicle: saline sonified 100 % of control | dose: 400.0 mg/kg/injection, schedule: Q01DX001 (ip), vehicle: saline sonified 100 % of control

O=[N+]([O-])c1ccc(C2CC(c3ccccc3)=Nc3ccccc3S2)cc1 (stereo not given)
inactive: [11] 97 % of control | [12] 92 % of control | [1] 97 % of control

Cc1ccc(CCn2c3c(c4cc(Cl)ccc42)CN(C)CC3)cn1
inactive: [1] 99 % of control | [2] 102 % of control

Cc1cnc(C)n2c(C)nnc12
inactive: dose: 100.0 mg/kg/injection, schedule: Q04DX003 (ip), vehicle: saline 99 % of control | dose: 200.0 mg/kg/injection, schedule: Q04DX003 (ip), vehicle: saline 96 % of control

Cc1ccc(S(=O)(=O)N2CCCCN(S(=O)(=O)c3ccc(C)cc3)COC2)cc1
inactive: [7] 101 % of control | [8] 101 % of control | [9] 102 % of control

Oc1ccccc1C=NCCSSCCN=Cc1ccccc1O
inactive: [13] 106 % of control | [14] 101 % of control | [15] 108 % of control

NS(=O)(=O)c1ccc(N=Nc2nc3[nH]c(=O)[nH]c(=O)c3[nH]2)cc1
inactive: dose: 6.25 mg/kg/injection, schedule: Q01DX005 (ip), vehicle: Klucel (hydroxypropylcellulose) (HPC) 106 % of control | dose: 12.5 mg/kg/injection, schedule: Q01DX005 (ip), vehicle: Klucel (hydroxypropylcellulose) (HPC) 102 % of control | dose: 25.0 mg/kg/injection, schedule: Q01DX005 (ip), vehicle: Klucel (hydroxypropylcellulose) (HPC) 107 % of control

CCCCCCCCCCCC[N+]1(CC)CCCCC1
inactive: dose: 0.39 mg/kg/injection, schedule: Q01DX009 (ip), vehicle: saline 108 % of control | dose: 0.78 mg/kg/injection, schedule: Q01DX009 (ip), vehicle: saline 109 % of control | [10] 118 % of control

c1ccc(Cn2ccnc2CSCCSCc2nccn2Cc2ccccc2)cc1
inactive: [6] 101 % of control | [13] 99 % of control and 90 % of control | [14] 99 % of control and 105 % of control | [15] 97 % of control

COc1cc(/C=N/NC(=O)c2cc(OC)c(OC)c(OC)c2)ccc1O
inactive: dose: 60.0 mg/kg/injection, schedule: Q01DX005 (ip), vehicle: saline with Tween-80 99 % of control | dose: 120.0 mg/kg/injection, schedule: Q01DX005 (ip), vehicle: saline with Tween-80 101 % of control | dose: 240.0 mg/kg/injection, schedule: Q01DX005 (ip), vehicle: saline with Tween-80 95 % of control
